Laboratory results from patent publication EP4553083A1, “PEPTIDES AND THEIR USE FOR THE TREATMENT AND/OR PREVENTION OF MULTIPLE SCLEROSIS” (Cellerys AG, priority 2023, dated 2025).
Ends that are not written are not given here.

Tested on: RASGRP2 78-87-specific T cell clones (TCCs)
Assay: T cell reactivity in RASGRP2 (78-87) specific T cell clones (3H-thymidine assay)
Type: cell-based, human
Conditions: 72 hours; four DRB1*15:01-restricted clones; presented by BLS DR2b cells; Figure 6
Experimental: Four RASGRP2 78-87-specific T cell clones (TCCs) (cf. Wang et al., 2020, Cell, 183(5):1264-1281) were tested by 3H-thymidine incorporation (72 hours) for their responses against the biotinylated RASGRP2 (74-91) (SEQ ID NO: 2) peptide "bioRASGRP2 74-91" and a positive control, i.e. stimulation with anti-CD2/3/28-coupled beads. Each of the clones is DRB1*15:01-restricted.
Proliferation was measured 72 h after stimulation by 3H-thymidine (Hartmann Analytic, Braunschweig, Germany) incorporation in a scintillation counter (Wallac 1450, PerkinElmer, Rodgau-Jürgesheim, Germany). Depicted is the fold change over unstimulated control. Each dot represents the mean of 3 repeat wells for each clone. Peptides were presented in the assay by BLS cells transfected with DRA*01:01 and DRB1*15:01 (the heterodimer is referred to as BLS DR2b).

Row | Substance | proliferative response (3H-thymidine incorporation)
1 | biotinylated RASGRP2 (74-91): RASGRP2 (74-91) (SEQ ID NO: 2) coupled to a Biotin-PEG linker (Maleimide-PEG2-Biotin) (KTCHLVRYWISAFPAEFD; also: coupled to Maleimide-PEG2-Biotin linker, site not given here; listed as Homo sapiens) | positive proliferative response

Tested on: TCC14
Assay: Antigen specificity of TCC14 (co-cultivation with monocytes and peptide-coupled RBCs, fluorospot)
Type: cell-based, human
Conditions: irrelevant peptide; 48 hours; Figure 15
Experimental: In order to evaluate whether the IL-10 and IFN-γ secretion upon co-culturing TCC14 with active monocytes and peptide-coupled RBCs is antigen-specific, biotinylated SIN3A* peptide ([…]) (SEQ ID NO: 38) was coupled to RBCs and co-cultured with TCC14 and active monocytes. […] Therefore, it was tested if the SIN3A*-coupled RBCs have any effect on TCC14. Soluble SIN3A* peptide (QPVEFNHAIHYVN) (SEQ ID NO: 39) was used for stimulation.
Monocytes were magnetically isolated from PBMCs of a DR15 donor and seeded at 50×10^3 in each well. 25 ×10^3 of the TCC14 was seeded in each well (final volume 200 µl). Coupling to RBCs was performed with 1.58 mg/ml (0.132 mg/ml × 12) of the respective peptide. 200×10^3 RBCs were added to each well.
IFN-α was directly added into the wells at the time of seeding the cells at 10000 U/ml. In the samples with soluble peptides, 10 µM of the peptides was added to the wells. Plates were incubated for 48 hours and stained for IFN-γ, IL-10 and IL-17 according to the manufacturer's instructions (see fluorospot assay supra).

Row | Substance | effect on the T cell clone (IL-10 and IFN-γ secretion)
2 | QPVEFNHAIHYVN [SIN3A*, irrelevant peptide, a tumor-specific antigen not recognized by TCC14] | neither stimulatory nor inhibitory

Tested on: not listed separately
Assay: Peptide solubility test in saline (visual: cloudy = insoluble, clear = soluble)
Conditions: at a concentration of 10 mg/ml; visual assessment
Experimental: MBP, MOG and PLP peptides were also tested.
Peptides were added to saline at different concentrations and it was visually assessed whether the resulting sample was cloudy (peptide insoluble) or clear (peptide soluble).

Row | solubility in saline | Substance
3 | soluble in saline | KTCHLVRYWISAFPAEFD [RASGRP2 (74-91), KTCHLVRYWISAFPAEFD]
4 | soluble in saline | FRFTPFKQAVKETCA [TSTA3-4 (296-310), FRFTPFKQAVKETCA]
5 | soluble in saline | LSVGEEDEVS [TSTA3-3 (242-251), LSVGEEDEVS]

Second part, the substance before the results:

Row | Substance | solubility in saline
6 | TAQTRALFEKVQPTH [TSTA3-1 (51-65), TAQTRALFEKVQPTH] | soluble in saline
7 | PHNSNFGYSYAKRMI [TSTA3-2 (136-150), PHNSNFGYSYAKRMI] | soluble in saline

Same assay, conditions: concentration not given; visual assessment

Row | solubility in saline | Substance
8 | insoluble in saline | SLQVKTCHLVRYWISAFPAEFDLNPE [RASGRP2 70-95]
9 | not soluble in saline | LVRYWISAFP [RASGRP2 78-87, LVRYWISAFP]

More lines, now with the values behind:

Row | Substance | solubility in saline
10 | LVRYWISAFPAEFDLNPE [RASGRP2 78-95, LVRYWISAFPAEFDLNPE] | insoluble in saline
11 | SNSLQVKTCHLVRYWISAFPAEFDLNPELA [RASGRP2 68-97] | insoluble in saline
12 | LVRYWISAFPAEFDL [RASGRP2 78-92, LVRYWISAFPAEFDL] | insoluble in saline
